For test [1], the system named is weed plants such as Sinapis alba, Chrysanthemum segetum, Avena sativa, Stellaria media, Echinochloa crus-galli, Lolium multiflorum, Setaria viridis, Abutilon …. The test is described as follows: Pre-emergence effect on weeds (greenhouse pot test, visual scoring). It is filed as in vivo. The note with it: applied pre-emergence at a rate of 0.3 kg or less of active substance per hectare; visual scoring after 3 to 4 weeks vs untreated controls.

Test [2] has as its system weed plants such as Sinapis alba, Echinochloa crus-galli, Lolium multiflorum, Chrysanthemum segetum, Setaria viridis, Abutilon theophrasti, Amaranthus …. The test is described as follows: Post-emergence effect on weeds (greenhouse pot test, visual scoring). It is filed as in vivo. As to conditions: applied post-emergence (three-leaf stage) at a rate of 0.3 kg or less of active substance per hectare; visual scoring after about 3 to 4 weeks vs untreated controls.

The structures appear in SMILES notation.

In the case of `COc1cc(OC)nc(NC(=O)NS(=O)(=O)c2c(I)cccc2OS(C)(=O)=O)n1` [Compound 1.463], the “herbicidal action against weed plants, pre-emergence” value (from here on “herbicidal action … pre-emergence”) in test [1] is on record as “very good herbicidal action”. The “herbicidal action against weed plants, post-emergence” value (“herbicidal action … post-emergence” below) in test [2] is given as “very good herbicidal action”.

In the case of `COc1cc(Cl)nc(NC(=O)NS(=O)(=O)c2c(I)cccc2OC(C)C(F)(F)F)n1` (stereo not drawn) [Compound 1.365], the “herbicidal action … pre-emergence” value in test [1] was “very good herbicidal action”. For the same molecule, the “herbicidal action … post-emergence” value in test [2] is “very good herbicidal action”.

Turning to `COc1nc(C)nc(NC(=O)NS(=O)(=O)c2c(I)cccc2OC(F)F)n1` [Compound 1.325], the “herbicidal action … pre-emergence” value in test [1] is reported as “very good herbicidal action”. Also, the “herbicidal action … post-emergence” value in test [2] was “very good herbicidal action”.

For the molecule `COc1cc(Cl)nc(NC(=O)NS(=O)(=O)c2c(I)cccc2OCC(F)F)n1` [Compound 1.354], in test [1], the “herbicidal action … pre-emergence” value is recorded as “very good herbicidal action”. For the same molecule, the “herbicidal action … post-emergence” value in test [2] was “very good herbicidal action”.

For the molecule `Cc1cc(C)nc(NC(=O)NS(=O)(=O)c2c(I)cccc2OS(=O)(=O)N(C)C)n1` [Compound 1.509], the “herbicidal action … pre-emergence” value in test [1] is “very good herbicidal action”. The “herbicidal action … post-emergence” value in test [2] was “very good herbicidal action”.

Consider `COc1cc(Cl)nc(NC(=O)NS(=O)(=O)c2c(I)cccc2OCC2CC2)n1` [Compound 1.238], for which the “herbicidal action … pre-emergence” value in test [1] is “very good herbicidal action”. For the same molecule, the “herbicidal action … post-emergence” value in test [2] is listed as “very good herbicidal action”.

The values above are taken from patent publication US20100317524A1, “Sulfonylureas” (Bayer CropScience AG, priority 2005, published 2010).
